Data set [1] deals with MCF-7 human breast adenocarcinoma cells. The data set is described as follows: Cytotoxicity against MCF-7 human breast adenocarcinoma cells (MTT). The class given is cell-based. The note with it: MCF-7 cells, 48 hrs.
Data set [2] concerns human primary hepatocytes THLE-2 (normal cell line). Briefly: Cytotoxic activity test on normal cell line THLE-2 (MTT assay). The class given is cell-based. As for the experimental part: The samples were tested against the human primary hepatocytes THLE-2 (normal cell line, ATCC). Cells were maintained at sub-confluency at 37° C. in humidified air containing 5% CO2. The samples' concentrations ranged between (100 to 0.78 μg/ml) and the MTT assay was used to assess cell death.

Regarding `CCCCCCn1c([O-])c(N=Nc2ccc(C)cc2)c(C)c(C#N)c1=O.CCCCCCn1c([O-])c(N=Nc2ccc(C)cc2)c(C)c(C#N)c1=O.[Cu+2]` [D4], the “Mean IC50, MCF-7 human breast adenocarcinoma cells” value in data set [1] is 83.72 µg/mL. Also, in data set [2] (THLE-2 cells, 48 hrs, MTT, 100 to 0.78 μg/ml, mean), the “Mean IC50, THLE-2 human normal hepatocytes” value came to 169.76 μg/mL. Further, in data set [2] (THLE-2 normal cell line, at the high concentration of 100 ppm), the “effect on the normal cell line (safety)” value is recorded as “safe”.
